{"source": "patent EP0559845B1", "about": "“Use of compounds in preventing endotoxin shock” (priority 1991, dated 1992)", "key": {"sheep [1]": {"system": "sheep", "conditions": "40-1000 µg/kg; reported in the literature; cited from earlier work"}, "C57BL/10 mice": {"system": "C57BL/10 mice", "assay": "Toxicity of lipid X in mice", "type": "in vivo", "description": "Eight week old mice (strain C57BL/10) were allowed to rest for at least 7 days following their arrival and were sexually segregated and housed at 5 per cage with food and water ad libitum. Intravenous injection of a GTPase inhibiting compound (lipid X dissolved in saline as described above) and/or lipopolysaccharide was achieved by the retroorbital sinus route using a 27 gauge needle. No more than 0.1 ml of fluid was injected at a time. Just prior to injection, the mice were lightly anesthetized with ether. Following the injection, mice were observed every 0.5-6 hours and the time of death was recorded. In a few experiments, mice were injected by the intraperitoneal route with solutions of lipid X and/or lipopolysaccharide similar to those described above.\nTo test for the toxicity of lipid X in mice, C57BL/10 mice were challenged with 750, 2000 or 5000 µg of lipid X intraperitoneally (12 mice) or with 750, 1500 or 3000 µg intravenously (7 mice). […] Consequently, lipid X appeared to be nontoxic in mice, as in sheep."}, "[2]": {"system": "GTPase activity in membranes isolated from a macrophage (RAW 264.7) cell line", "assay": "GTPase assay: basal or agonist-stimulated GTPase activity in macrophage membranes", "type": "biochemical", "conditions": "no LPS", "source_text": "We sought to directly evaluate the influence of LPS on possible G-protein function by examining agonist-enhanced GTPase activity, which is a hallmark of G-protein action. Moreover, because macrophages are one of the key cell types in the release of toxic mediators following an LPS challenge, we first assessed the capacity of LPS to influence GTPase activity in membranes isolated from RAW 264.7 cells, which is a highly LPS-responsive macrophage cell line. In these studies, GTPase activity was measured using a standard assay. The activity was determined using 2 µM γ-^32P-GTP in the presence of 0.1 mM ATP and 0.2 mM of the non-hydrolyzable ATP analog, AMPPNP, in order to minimize nonspecific nucleotidase activity in the membrane preparations. In the preferred practice of the present invention, the ability of a candidate compound to inhibit LPS-induced GTPase is assessed by measuring the release of ^32Pi from γ-^32P-GTP.\nWe first determined the optimal LPS concentration for GTPase stimulation. In all experiments, the LPS dose response curve was quite steep, and with the highest activity occurring around 200-300 µg LPS/ml.\nUnder these conditions, GTPase activation was evident at 100 µg LPS/ml (roughly 6 µM assuming an average MW ∼ 17,000 kDa), and the maximal effect was seen by 300 µg/ml LPS. (2) To show adenosine mucleotide synergism with LPS-stimulated GTPase activity, either 10µM ATP or 30µM ADP replace the 0.1 mM ATP and 0.2 mM AMPPNP of the standard assay described by Cassel et al. and Neer et al.\nIn the preferred assay, a candidate compound (.001 - 1000 µM) is dissolved or suspended in 100µl of a reaction buffer containing 20mM HEPES (pH 7.4), 0.01mM ATP or ADP, membranes isolated from RAW 264.7 cells, 2µM γ-^32P-GTP (3-9 X 10cpm/pmol), 5mM MgCl2, 18µM LPS (based on an estimated MW of 17,000 kDa for E. coli 0111:B4 endotoxin), and 250 mM ammonium sulfate. The reaction is initiated by the addition of the γ-^32P-GTP and the mixture incubated at 30-37°C for 15 to 30 minutes. The reaction is terminated by the addition of 500µl of 5% trichloroacetic acid and 500µl of 0.1gm/ml acid-activated charcoal in 5% trichloroacetic acid. The samples are centrifuged at 14,000xg for 10 minutes, and a 550µl aliquot of the supernatant is removed for scintillation counting. The supernatant will contain the released ^32Pi. The extent of GTPase inhibition is measured by the decrease in the amount of ^32Pi released from γ-^32P-GTP. Appropriate controls include mixtures with one of the following omitted: (i) test compound, (ii) endotoxin, and (iii) ATP, ADP or AMPPNP.\nThe macrophage-like cell line RAW 264.7 is cultured as described using RPMI 1640 medium supplemented with 10% fetal calf serum (FCS) containing < 0.1 ng/ml LPS. The membranes are resuspended in 20 mM HEPES (pH 7.4), 1 mM dithiothreitol, 1 mM EDTA and 10 µg leupeptin/ml. Aliquots are stored at -70°C until assayed.\nTo assess whether the LPS/ATP-enhanced GTPase is a \"low Km\" form, which would be expected for a variety of large and small MW G-proteins, as well as for various GAP and ARF-like proteins, as opposed to a \"high Km\" form, such as a phosphatase, we assayed the GTPase activity using 0.2 and 50 µM GTP essentially as described previously. […] The LPS and ATP stimulated a low Km GTPase activity by ∼30% and 70%, respectively, when added individually. This stimulation of low Km activity was slightly greater than that estimated using the standard assay conditions. […] The LPS stimulation of GTPase activity is enhanced by adenine nucleotides."}, "sheep [3]": {"system": "sheep", "assay": "Protection of sheep against the lethal effects of intravenous lipopolysaccharide", "type": "in vivo", "description": "Mixed breed sheep weighing 30-70 kg were obtained from the University of Wisconsin Experimental Farms. Sheep were prepared as follows: at least 24 hours before each experiment, catheters were percutaneously placed in the pulmonary artery. Any other catheterizations that were required for infusion were done at this time. All studies were performed on awake, unrestrained sheep placed in portable stanchions with food and water ad libitum. Electronically calculated pulmonary artery pressures as well as heart rates were recorded at various intervals on a polygraph. To ensure a stable baseline prior to the injection of test compounds, approximately 1 hour of baseline measurements were recorded.\nIn view of the partial protection afforded by lipid X against LPS-induced lethality in mice, the possibility of such protection was also examined in sheep. The sheep system has the important advantage of permitting the administration of much larger doses of lipid X relative to LPS. It is the ratio of lipid X to endotoxin that is critical for survival. […] It is evident that a 5-10 fold excess of lipid X (on a weight basis) over LPS is required to ensure survival. (Because of the inherent LPS resistance of mice, their small body volume, and the limited solubility of lipid X in water, it is impossible to achieve 5-10 fold excess of lipid X relative to LPS in the mouse system.)"}}}
{"compound": "CCCCCCCCCCC[C@@H](O)CC(=O)N[C@H]1[C@@H](OP(=O)(O)O)O[C@H](CO)[C@@H](O)[C@@H]1OC(=O)C[C@H](O)CCCCCCCCCCC", "note": "[lipid X]", "values": [{"measurement": "illness after lipid X by itself", "setting": "sheep [1]", "result": "does not create marked illness or fever"}, {"measurement": "survival after lipid X alone", "setting": "C57BL/10 mice; 750, 1500 or 3000 µg intravenously (7 mice)", "result": "All these mice lived"}, {"measurement": "survival after lipid X alone", "setting": "C57BL/10 mice; 750, 2000 or 5000 µg intraperitoneally (12 mice)", "result": "All these mice lived"}, {"measurement": "effect on basal GTPase activity", "setting": "[2]", "result": "slightly reducing basal activity"}, {"measurement": "survival of subsequent LPS challenge", "setting": "sheep [3]; 100-200 µg/kg of lipid X during the pretreatment period", "result": "survived"}, {"measurement": "Survivors", "setting": "sheep [3]; Lipid X 50 µg/kg 1 hour prior to endotoxin, Lipopolysaccharide 20 µg/kg", "result": "1/2"}, {"measurement": "Survivors", "setting": "sheep [3]; Lipid X 100 µg/kg 15 min. prior to endotoxin, Lipopolysaccharide 10 µg/kg", "result": "3/3"}, {"measurement": "Survivors", "setting": "sheep [3]; Lipid X 100 µg/kg 1 hour prior to endotoxin, Lipopolysaccharide 20 µg/kg", "result": "4/4"}, {"measurement": "Survivors", "setting": "sheep [3]; Lipid X 200 µg/kg 1 hour prior to endotoxin, Lipopolysaccharide 20 µg/kg", "result": "3/3"}, {"measurement": "excess of lipid X over LPS required to ensure survival", "setting": "sheep [3]; in vivo", "result": "5-10 fold excess (on a weight basis"}, {"measurement": "effect on pulmonary hypertension or fever induced by LPS", "setting": "sheep [3]; pretreatment with lipid X", "result": "does not completely prevent"}, {"measurement": "effect on serious clinical symptoms (shortness of breath, weakness, diarrhea)", "setting": "sheep [3]; pretreatment with lipid X", "result": "alleviates some of the serious clinical symptoms"}]}
